In the assay the target is T1, AHR (Homo sapiens, UniProt P35869).
T1 construct: endogenous in cells; host or cells: HepG2 (human), transfected with a DRE-luciferase reporter only
T1 sequence (P35869 11-848): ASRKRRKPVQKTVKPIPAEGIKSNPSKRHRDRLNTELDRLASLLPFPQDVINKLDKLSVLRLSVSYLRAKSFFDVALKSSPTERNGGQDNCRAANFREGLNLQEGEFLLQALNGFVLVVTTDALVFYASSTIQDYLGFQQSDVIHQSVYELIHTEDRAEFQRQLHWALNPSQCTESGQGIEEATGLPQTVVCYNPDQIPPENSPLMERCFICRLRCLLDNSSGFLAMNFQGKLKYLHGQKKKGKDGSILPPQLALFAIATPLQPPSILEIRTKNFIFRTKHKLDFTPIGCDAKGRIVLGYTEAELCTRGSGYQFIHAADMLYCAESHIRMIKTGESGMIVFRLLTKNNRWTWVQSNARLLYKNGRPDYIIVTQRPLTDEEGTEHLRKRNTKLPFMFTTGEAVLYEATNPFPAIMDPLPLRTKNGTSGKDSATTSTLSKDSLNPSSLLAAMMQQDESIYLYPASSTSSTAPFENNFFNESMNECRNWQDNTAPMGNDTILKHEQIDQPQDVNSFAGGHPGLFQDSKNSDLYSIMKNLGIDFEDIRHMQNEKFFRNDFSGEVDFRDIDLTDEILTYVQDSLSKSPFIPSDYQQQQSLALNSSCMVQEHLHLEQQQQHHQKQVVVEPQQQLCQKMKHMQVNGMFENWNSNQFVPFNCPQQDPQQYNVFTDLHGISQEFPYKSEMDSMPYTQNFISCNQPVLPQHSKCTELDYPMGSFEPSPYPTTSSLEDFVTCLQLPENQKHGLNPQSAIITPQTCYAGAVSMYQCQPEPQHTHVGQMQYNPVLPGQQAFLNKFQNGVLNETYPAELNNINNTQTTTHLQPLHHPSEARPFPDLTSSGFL
Put plainly: DRE-Luciferase Reporter Assay, HepG2 (agonist). Type of assay: cell-based. Particulars: for pEC50: read-out: DRE-Luc HepG2 - Agonist: Average EC50. As for the experimental part:
DRE-Luciferase Reporter Assay
AHR binds to Dioxin Responsive Elements (DRE) upstream of genes that it activates. One measure of AHR activity is activation of a reporter gene, such as luciferase, downstream of one or multiple DRE elements. Luciferase activity reflects activation and inhibition of AHR in the cells expressing this reporter.
Murine Hepa1-6 or Hepa-1c1c7 or other murine cell line with a DRE-luciferase reporter either stably or transiently transfected are plated in media in plates (96-well, 384-well or other plates) and incubated overnight at 37 C in a CO2 incubator. Likewise, human HepG2 or other human cell line with a DRE-luciferase reporter either stably or transiently transfected are plated in media in plates (96-well, 384-well or other plates) and incubated overnight at 37 C in a CO2 incubator.
The next day, an AHR agonist compound is added. Cells are incubated for 6, 16 or 24 hours or another time point and then lysed for determination of luciferase activity as a read-out of the AHR activation. Luciferase can be measured with a commercial kit such as the Promega Luciferase kit or any kit or reagents that provide the luciferin substrate for measuring luciferase activity. The level of luciferase with only activating ligand (e.g. such as TCDD, kynurenine, ITE (2-(1H-indole-3-ylcarbonyl)-4-thiazolecarboxylic methyl ester), VAF347, BNF (beta-naphthoflavone), ICZ (6-formylindolo(3,2-b) carbazole or other AHR ligands) added is the maximum signal while the luciferase with no ligand is the minimum signal. EC50s can be determined as the concentration which activates half of the maximum luciferase activity.
In general terms: A reporter such as luciferase makes a cellular process visible.

The text below walks through data of US12030876B2, “Aryl hydrocarbon receptor (AHR) agonists and uses thereof” (Ikena Oncology, Inc., priority 2019, dated 2024).

pEC50: −log10 of the molar value. Read-outs that look alike come from different tables or passages of the source.

One may read the pEC50 as the EC50 on a negative log10 scale, so that one unit is a factor of ten. In general, EC50 refers to the midpoint of the concentration-response curve. The low end stands for higher potency in that assay, the high end for lower potency in that assay.

As for `[O-][n+]1cccc(-c2noc(Nc3cccc(C(F)(F)F)c3)n2)c1` [I-150], the pEC50 (HepG2, Table 3) is less than 6.00.
Consider `O=C(O)c1cc(-c2csc(Nc3cccc(C(F)(F)F)c3)n2)c[n+]([O-])c1` [I-111], for which the pEC50 (HepG2, Table 3) is less than 6.00.
As to `[O-][n+]1cccc(-c2cc(Nc3cccc(C(F)(F)F)c3)on2)c1` [I-140], the pEC50 (HepG2, Table 3) was less than 6.00.
As to `Oc1ccc(-c2cnc(Nc3ccc(C(F)(F)F)cc3)o2)cc1` [I-67], where the note is “HepG2, Table 2”, the pEC50 was less than 6.00.
Consider `COC(=O)c1cccc(-c2csc(Nc3cccc(C(F)(F)F)c3)n2)c1` [I-106], for which the pEC50 (HepG2, Table 3) is 6.00 to 7.00.
For `c1ccc(Nc2nc(-c3ccccc3)cs2)cc1` [Compound P-14], for the setting “DRE-Luc HepG2 - Agonist: Average EC50 (μM), HepG2, Table 2”, the EC50 was more than 1 µM.
Regarding `COC(=O)c1cncc(-c2csc(Nc3cccc(C(F)(F)F)c3)n2)c1` [I-102], for the setting “HepG2, Table 3”, the pEC50 was less than 6.00.
For `CN(CCNC(=O)N(c1cccc(C(F)(F)F)c1)c1nc(-c2cccc(Cl)c2)cs1)CC(=O)O` [I-86], under “HepG2, Table 3”, the pEC50 was more than 8.00.
On to `COC(=O)c1cccc(Nc2nc(-c3cccc(C#N)c3)cs2)c1` [I-104], for which the pEC50 (HepG2, Table 3) is less than 6.00.
In the case of `O=[N+]([O-])c1cccc(-c2csc(Nc3cccc(S(=O)(=O)O)c3)n2)c1` [I-103], the pEC50 (HepG2, Table 3) is less than 6.00.
`[O-][n+]1cccc(-c2csc(Nc3cncc(C(F)(F)F)c3)n2)c1` [I-122]: for the setting “HepG2, Table 3”, the pEC50 was less than 6.00.
`C[N+](C)(C)CCOc1cccc(-c2cnc(Nc3ccc(C(F)(F)F)cc3)o2)c1` [I-72]: where the note is “HepG2, Table 2”, the pEC50 was less than 6.00.
As to `Cn1c(-c2cccc(Cl)c2)cnc1Nc1cccc(C(F)(F)F)c1` [I-71], the pEC50 (HepG2, Table 2) is less than 6.00.
On to `C[N+]1(C)CCN(C(=O)c2cccc(Nc3nc(-c4cccc([N+](=O)[O-])c4)cs3)c2)CC1` [I-88], for which, under “HepG2, Table 3”, the pEC50 is less than 6.00.
For `COc1cc(-c2csc(Nc3cccc(SC)c3)n2)ccn1` [I-141], the pEC50 (HepG2, Table 3) was less than 6.00.
Take `O=S(=O)(O)c1cccc(-c2csc(Nc3cccc(C(F)(F)F)c3)n2)c1` [I-85]: the pEC50 (HepG2, Table 3) is less than 6.00.
As to `FC(F)(F)c1ccc(Nc2nc(-c3cccc(Cl)c3)co2)cc1` [I-63], the pEC50 (HepG2, Table 2) was 6.00 to 7.00.
For the molecule `O=[N+]([O-])c1cccc(-c2csc(Nc3ccc(C(F)(F)F)cc3)n2)c1` [I-84], the pEC50 (HepG2, Table 3) was 7.00 to 8.00.
Regarding `Oc1cccc(-c2cnc(Nc3ccc(C(F)(F)F)cc3)o2)c1` [I-68], the pEC50 (HepG2, Table 2) is less than 6.00.
Take `C[N+](C)(C)CCCNC(=O)N(c1cccc(C(F)(F)F)c1)c1nc(-c2ccc[n+]([O-])c2)cs1` [I-110]: the pEC50 (HepG2, Table 3) is less than 6.00.
Take `CN(C)CCOc1cccc(-c2cnc(Nc3ccc(C(F)(F)F)cc3)o2)c1` [I-69]: the pEC50 (HepG2, Table 2) is less than 6.00.
`Cn1cc(-c2cccc(Cl)c2)nc1Nc1cccc(C(F)(F)F)c1` [I-70]: under “HepG2, Table 2”, the pEC50 was less than 6.00.
Regarding `O=c1cc(-c2noc(Nc3cccc(C(F)(F)F)c3)n2)cc[nH]1` [I-135], the pEC50 (HepG2, Table 3) is less than 6.00.
On the same count and under the same terms, for `O=c1cc(-c2nc(Nc3cccc(C(F)(F)F)c3)no2)cc[nH]1` [I-133] the value was 6.00 to 7.00; for `NC(=O)c1cccc(-c2csc(Nc3cccc(C(F)(F)F)n3)n2)c1` [I-119], more than 8.00; for `[O-][n+]1cccc(-c2cnc(Nc3cccc(C(F)(F)F)c3)o2)c1` [I-123], less than 6.00.
On to `C[N+](C)(CCO)CCOCCN(c1cccc(C(F)(F)F)c1)c1nc(-c2cccc(Cl)c2)cs1` [I-45], for which the pEC50 (HepG2, Table 2) was 6.00 to 7.00.
Turning to `C[N+](C)(CCO)CCOCCN(c1ccc(C(F)(F)F)cc1)c1nc(-c2cccc(Cl)c2)cs1` [I-52], the pEC50 (HepG2, Table 2) is less than 6.00.
Regarding `O=C(O)c1cc(-c2csc(Nc3cccc(C(F)(F)F)c3)n2)cc([N+](=O)[O-])c1` [I-78], the pEC50 (HepG2, Table 3) was less than 6.00.
As to `[O-][n+]1cccc(-c2csc(Nc3ccc(C(F)(F)F)cc3)n2)c1` [I-129], the pEC50 (HepG2, Table 3) is 6.00 to 7.00.
For `O=[N+]([O-])c1cccc(-c2csc(Nc3cncc(C(F)(F)F)c3)n2)c1` [I-96], the pEC50 (HepG2, Table 3) was more than 8.00.
For the molecule `FC(F)(F)c1ccc(Nc2nnc(-c3cccc(Cl)c3)o2)cc1` [I-64], the pEC50 (HepG2, Table 2) is less than 6.00.
Turning to `[O-][n+]1ccccc1-c1csc(Nc2cccc(C(F)(F)F)c2)n1` [I-94], the pEC50 (HepG2, Table 3) is less than 6.00.
The same measure, in the same setting: for `NC(=O)c1cccc(Nc2nc(-c3cccc([N+](=O)[O-])c3)cs2)c1` [I-82] the value was less than 6.00; for `COC(=O)c1cc(-c2csc(Nc3cccc(C(F)(F)F)c3)n2)c[n+]([O-])c1` [I-127], 6.00 to 7.00.
In the case of `FC(F)(F)c1ccc(Nc2ncc(-c3ccccc3Cl)o2)cc1` [I-62], the pEC50 (HepG2, Table 2) was 6.00 to 7.00.
For the molecule `O=c1cc(-c2cc(Nc3cccc(C(F)(F)F)c3)no2)cc[nH]1` [I-139], the pEC50 (HepG2, Table 3) was 6.00 to 7.00.
In the case of `NC(=O)c1cccc(-c2csc(Nc3cncc(C(F)(F)F)c3)n2)c1` [I-105], the pEC50 (HepG2, Table 3) was less than 6.00.
The same measure, in the same setting: for `N#Cc1cccc(-c2cc(Nc3cccc(C(F)(F)F)c3)no2)c1` [I-151] the value was less than 6.00; for `CSc1cccc(Nc2nc(-c3cc[nH]c(=O)c3)cs2)c1` [I-142], less than 6.00; for `O=c1cc(-c2cc(Nc3cccc(C(F)(F)F)c3)on2)cc[nH]1` [I-137], less than 6.00.
Consider `COC(=O)c1cc(-c2csc(Nc3cccc(C(F)(F)F)c3)n2)cc([N+](=O)[O-])c1` [I-108], for which the pEC50 (HepG2, Table 3) was 6.00 to 7.00.
For the molecule `N#Cc1cc(-c2csc(Nc3cccc(C(F)(F)F)c3)n2)cc([N+](=O)[O-])c1` [I-115], the pEC50 (HepG2, Table 3) is less than 6.00.
Turning to `N#Cc1cccc(-c2cc(Nc3cccc(C(F)(F)F)c3)on2)c1` [I-138], for the setting “HepG2, Table 3”, the pEC50 is less than 6.00.
For `O=C(O)c1cncc(-c2csc(Nc3cccc(C(F)(F)F)c3)n2)c1` [I-79], the pEC50 (HepG2, Table 3) was less than 6.00.
For `[O-][n+]1cccc(-c2nc(Nc3cccc(C(F)(F)F)c3)no2)c1` [I-134], for the setting “HepG2, Table 3”, the pEC50 was less than 6.00.
On to `N#Cc1cccc(-c2coc(Nc3cccc(C(F)(F)F)c3)n2)c1` [I-124], for which the pEC50 (HepG2, Table 3) is less than 6.00.
For `COC(=O)c1cc(C#N)cc(-c2csc(Nc3cccc(C(F)(F)F)c3)n2)c1` [I-113], the pEC50 (HepG2, Table 3) is less than 6.00.
The same measure, in the same setting: for `N#Cc1cc(Cl)cc(-c2csc(Nc3cccc(C(F)(F)F)c3)n2)c1` [I-80] the value was 7.00 to 8.00.
Turning to `CN(C)CCOc1ccc(-c2cnc(Nc3ccc(C(F)(F)F)cc3)o2)cc1` [I-74], the pEC50 (HepG2, Table 2) was less than 6.00.
Regarding `O=C(O)c1cccc(Nc2nc(-c3ccc[n+]([O-])c3)cs2)c1` [I-116], the pEC50 (HepG2, Table 3) was less than 6.00.
For `C[N+](C)(C)CCOc1ccc(-c2cnc(Nc3ccc(C(F)(F)F)cc3)o2)cc1` [I-73], the pEC50 (HepG2, Table 2) is less than 6.00.
With `C[N+](C)(C)CCNC(=O)N(c1cccc(C(F)(F)F)c1)c1nc(-c2ccc[n+]([O-])c2)cs1` [I-118], the pEC50 (HepG2, Table 3) was 6.00 to 7.00.
As for `N#Cc1cccc(-c2csc(Nc3cccc(C(=O)O)c3)n2)c1` [I-114], the pEC50 (HepG2, Table 3) is less than 6.00.
With `C[N+](C)(CCOCCN(c1cccc(C(F)(F)F)c1)c1nc(-c2cccc(Cl)c2)cs1)CC(=O)O` [I-51], for the setting “HepG2, Table 2”, the pEC50 is less than 6.00.
On to `NC(=O)c1cc(-c2csc(Nc3cccc(C(F)(F)F)c3)n2)cc([N+](=O)[O-])c1` [I-101], for which the pEC50 (HepG2, Table 3) was less than 6.00.
As for `NC(=O)c1cc(-c2csc(Nc3cccc(C(F)(F)F)c3)n2)c[n+]([O-])c1` [I-99], the pEC50 (HepG2, Table 3) is less than 6.00.
With `Oc1ccccc1-c1cnc(Nc2ccc(C(F)(F)F)cc2)o1` [I-75], the negative logarithm of the EC50 (pEC50) (HepG2, Table 2) was less than 6.00.
`[O-][n+]1cccc(-c2cc(Nc3cccc(C(F)(F)F)c3)no2)c1` [I-131]: the negative logarithm of the EC50 (pEC50) (HepG2, Table 3) was less than 6.00.
In the case of `CSc1cccc(-c2csc(Nc3cccc(C(F)(F)F)c3)n2)c1` [I-132], for the setting “HepG2, Table 3”, the pEC50 is less than 6.00.
On to `FC(F)(F)c1ccc(Nc2nnc(-c3cccc(Cl)c3)[nH]2)cc1` [I-65], for which the pEC50 (HepG2, Table 2) was less than 6.00.
